Assay results from US20240410877A1, “SYSTEMS AND METHODS FOR MIXED MULTIPLE CELL LINE SCREENING USING ENDOGENOUS SINGLE NUCLEOTIDE POLYMORPHISM (SNP)-BASED CELL LINE IDENTIFICATION” (University of Kentucky Research Foundation, priority 2023, published 2024).

Legend:
Type in all cases: cell-based, human
c-Myc = assay: Western blot of c-Myc expression in liver cancer cells; settings: C3A cells, 1 μM DEDA vs DMSO
Procedure: Cells were grown in six-well plates and lysed in 0.5 mL/well lysis buffer (50 mM HEPES, 100 mM NaCl, 2 mM EDTA, 1% glycerol, 50 mM NaF, 1 mM Na3VO4, 1% Triton X-100, with protease inhibitors). Cell lysates were separated by a 10% SDS-PAGE gel and transferred to an Immobilon PVDF membrane. The protein levels of c-Myc and GAPDH (loading control) were analyzed using antibodies that recognize c-Myc (Epitomics, #1472-1) and GAPDH (GeneTex, #627408).

C3A = assay: Cell proliferation assay of single cell line; settings: 1 μM, 30 h
Procedure: (§1) The liver cancer cell lines, Huh7, C3A, PLC/PRF/5, SNU449, SNU475 and SK-Hep1, were purchased from the American Type Culture Collection (ATCC). The cells were cultured in DMEM (ATCC®30-2002) containing 10% (v/v) Fetal Bovine Serum (FBS) (Sigma F0926) and grown in an incubator at 37° C. with 5% CO2. The halogenated diarylacetylene, 4-((2,6-difluorophenyl) ethynyl)-N,N-dimethylaniline (DEDA), was synthesized and characterized as previously described.^18,19
(§2) For proliferation assays of single cell line, cells were seeded in 12-well plates (2×10^5 cells per well) and incubated overnight. The following day, DEDA (1 μM solution in DMSO) was added to each well with DMSO alone as a control. Each experiment was performed in quadruplicate. After 30 h, cells were analyzed under a reverse microscope. Cell viability and number were analyzed using the Vi-Cell XR Cell Viability Analyzer (Beckman Coulter).

SNU475 = assay: Cell proliferation assay of single cell line; settings: SNU475, 1 μM, 30 h
Procedure: as §1, §2

PLC/PRF/5 = assay: Cell proliferation assay of single cell line; settings: PLC/PRF/5, 1 μM, 30 h
Procedure: as §1, §2

SK-Hep1 = assay: Cell proliferation assay of single cell line; settings: SK-Hep1, 1 μM, 30 h
Procedure: as §1, §2

SNU449 = assay: Cell proliferation assay of single cell line; settings: SNU449, 1 μM, 30 h
Procedure: as §1, §2

Huh7 = assay: Cell proliferation assay of single cell line; settings: Huh7, 1 μM, 30 h
Procedure: as §1, §2

CN(C)c1ccc(C#Cc2c(F)cccc2F)cc1 [DEDA, 4-((2,6-difluorophenyl)ethynyl)-N,N-dimethylaniline]
c-Myc expression (c-Myc): inhibited c-Myc expression
sensitivity in cell proliferation assay (C3A): DEDA-sensitive
sensitivity in cell proliferation assay (SNU475): resistant
sensitivity in cell proliferation assay (PLC/PRF/5): resistant
sensitivity in cell proliferation assay (SK-Hep1): resistant
sensitivity in cell proliferation assay (SNU449): resistant
sensitivity in cell proliferation assay (Huh7): DEDA-sensitive
